“Also recorded” adds a separate entry of the source.
Key:
HaCaT cells = assay: MTT cytotoxicity assay; format: cell-based, human; settings: for IC50: Homo sapiens, HaCaT cell viability; for relative toxicity on HaCaT cells: 6-24 h
Method: Immortalized HaCaT cells from the original depositor (DKFZ, Heidelberg) were purchased from CLS-Cell Lines Service (code 300493) and were of […] skin type (phototype). In all experiments, the HaCaT cells were cultured at 37 °C in a humidified 5% CO2 atmosphere in high-glucose Dulbecco’s Modified Eagle Medium (DMEM-HG), which was supplemented with 10% fetal bovine serum, and were used at the 5th–6th passage. Specific pCBs (CBG, CBC, THCV and CBGA) were used to treat the HaCaT cells at different time points (6 h, 12 h and 24 h) and at different concentrations (0.5 µM, 1.0 µM, 2.5 µM, 5.0 µM, 10 µM and 25 µM). Various doses of these pCBs were added directly to culture medium (with 1% fetal bovine serum) and the vehicles alone were added to controls, as follows: 0.8% methanol for CBG and CBC; 0.6% methanol for THCV; 0.6% acetonitrile for CBGA.
The HaCaT cells were seeded into 96-well plates at a density of 1 × 10^4 per well, incubated overnight and then treated with the selected pCBs at different concentrations (0.5 μM, 1.0 μM, 2.5 μM, 5.0 μM, 10 μM and 25 μM) for 6 h, 12 h and 24 h. Cell viability was assessed using a mitochondrial-dependent reduction of 3-[4,5-dimethylthiazol-2-yl]-2,5-diphenyl tetrazolium bromide (MTT) to purple formazan. After 4 h, the MTT solution was discarded and dimethyl sulfoxide (DMSO) was added to dissolve the formazan crystals. The cell viability was calculated by subtracting the 630 nm OD background from the 570 nm OD total signal of the cell-free blank of each sample and was expressed as percentage of the control (100%).

CB2 = assay: qRT-PCR gene expression of CB2; format: cell-based, human; settings: HaCaT cells, half-IC50 dose, 24 h, vs. control
Method: (§1) The HaCaT cells were seeded into 6-well plates at a density of 4 × 10^4 per well, incubated overnight and then treated with the selected pCBs (CBG (6.0 µM), CBC (4.0 µM), THCV (9.0 µM) and CBGA (13.0 µM)) for 24 h. The cell pellets were collected and RT-PCR reactions were performed using the RevertAid H Minus First Strand cDNA Synthesis Kit. The relative abundance was assessed via RT quantitative PCR (RT-qPCR) using the SensiFAST SYBR Lo-ROX Kit in an Applied Biosystems 7500 Fast Real-Time PCR System (Life Technologies). To provide the precise quantification of the initial target in each PCR reaction, the amplification plot was examined, as well as the point of early log phase of the product accumulation, which was defined by assigning a fluorescence threshold above the background that was defined as the threshold cycle number or “Ct. Differences” in threshold cycle number that was used to quantify the relative amount of the PCR targets that were contained within each tube. After PCR, a dissociation curve (melting curve) was constructed in the range of 60 °C to 95 °C [62] to evaluate the specificity of the amplification products. The relative expression of the different amplicons was calculated using the delta–delta Ct (ΔΔCt) method and then converted into the relative expression ratio (2^−ΔΔCt) for statistical analysis. All data were normalized to the endogenous reference genes β-actin and glyceraldehyde-3-phosphate dehydrogenase. The specific primers (Table 5) that were used were designed and ordered from Integrated DNA Technologies (IDT; Coralville, IA, USA) with the following sequences: […]

GPR55 = assay: qRT-PCR gene expression of GPR55; format: cell-based, human; settings: HaCaT cells, half-IC50 dose, 24 h, vs. control
Method: as §1

PPARγ = assay: qRT-PCR gene expression of PPARγ; format: cell-based, human; settings: HaCaT cells, half-IC50 dose, 24 h, vs. control
Method: as §1

CB1/2 = assay: Receptor binding assay on adherent living cells with [3H]CP 55,940; set-up: species or system human; settings: HaCaT cells treated 24 h with half-IC50 amount; for total CB1/2 binding activity (in words): vs. control; for CB1/2 Binding Activity (pmol/mg of Protein): 2.5 nM [3H]CP 55,940, mean ± SEM, n = 3
Method: We also sought to investigate the effects of half-IC50 doses of pCBs on the functional activity of eCB-binding receptors (CB1/2 and TRPV1) and the AEA and 2-AG metabolizing enzymes (NAPE-PLD, FAAH, DAGLα/β and MAGL) when used to treat HaCaT cells for 24 h, for which an assay procedure was available. To this end, a CB1/2 ligand binding assay was performed using the radiolabeled synthetic cannabinoid [^3H]CP 55,940, which acts as a full agonist of both cannabinoid receptors with high and roughly equal affinity.
The HaCaT cells were seeded into 12-well plates at a density of 2 × 10^4 per well, incubated overnight and then treated with the selected pCBs (6.0 µM of CBG, 4.0 µM of CBC, 9.0 µM of THCV and 13.0 µM CBGA) for 24 h. Each well of the 12-well plates was washed twice with 1 mL of PBS and treated with 500 µL of incubation buffer (50 mM of Tris–HCl, 5 mM of MgCl2 and 1 mM of CaCl2; 0.2% BSA; pH 7.4), preheated to 37 °C and then incubated for 15 min at 37 °C. Then, 2.5 nM of [^3H]CP 55,940 was added and incubation occurred for 1 h in an incubator that was set at 37 °C. Afterward, the buffer was carefully removed and the cells were washed again with an ice-cold washing buffer (50 mM of Tris–HCl and 500 mM of NaCl; 0.1% BSA; pH 7.4). Unspecific binding was determined in the presence of 1 µM of synthetic agonist CP 55,940 [60]. Then, 500 µL of 0.5 M NaOH was added to each well and the cells were pipetted up and down several times in order to be lysed. The resuspension was then transferred to a 10-mL scintillation vial with a liquid scintillation cocktail and radioactivity was immediately read using a scintillation β-counter (Tri-Carb 2810 TR, Perkin Elmer, Waltham, MA, USA), as described in [40].

DAGLα/β = assay: DAGL α/β activity assay in membranes of treated cells; format: cell-based, human; settings: HaCaT cells, half-IC50 amount, 24 h, vs. control
Method: DAGL α/β Assay: The HaCaT cells were seeded into 6-well plates at a density of 4 × 10^4 per well, incubated overnight and then treated with the selected pCBs (6.0 µM of CBG, 4.0 µM of CBC, 9.0 µM of THCV and 13.0 µM of CBGA) for 24 h. The cell pellets were collected and DAGL α/β activity was determined using membranes that were isolated from these cells using the synthetic substrate p-nitrophenyl butyrate (pNPB) (8 mM) in 50 mM of HEPES pH 7.3 at room temperature for 20 min [68]. The DAGLα/β inhibitor KT172 (1 μM), which was purchased from Sigma-Aldrich (St. Louis, MO, USA), was used to fully erase the enzyme activity as a control.

Row | SMILES | IC50 (HaCaT cells; 6 h) [µM] | IC50 (HaCaT cells; 12 h) [µM] | IC50 (HaCaT cells; 24 h) [µM] | Gene Expression CB2 (CB2) | gene expression of CB2 (in words) (CB2) | Gene Expression GPR55 (GPR55) | gene expression of GPR55 (in words) (GPR55) | Gene Expression PPARγ (PPARγ) | gene expression of PPARγ (in words) (PPARγ) | total CB1/2 binding activity (in words) (CB1/2) | CB1/2 Binding Activity (pmol/mg of Protein) (CB1/2) | DAGLα/β activity (DAGLα/β) | relative toxicity on HaCaT cells (HaCaT cells)
1 | CCCCCc1cc(O)c2c(c1)OC(C)(CCC=C(C)C)C=C2 (centres unmarked) [CBC, cannabichromene] | 15.3 | 15.6 | 8.2 | ↓++ | significantly downregulated | ↓++++ | reduced | ↓++ | reduced | significantly increased | 10.380 ± 0.750 pmol/mg of Protein | increased DAGLα/β activity remarkably | –
2 | CCCc1cc(O)c2c(c1)OC(C)(C)[C@@H]1CCC(C)=C[C@@H]21 [THCV, Δ^9-tetrahydrocannabivarin] | 14.3 | 22.4 | 18.6 | – | – | ↑++++ | significant increase | ↓++++ | significantly reduced | significantly increased | 8.187 ± 0.302 pmol/mg of Protein | increased DAGLα/β activity remarkably | least toxic
3 | CCCCCc1cc(O)c(C/C=C(\C)CCC=C(C)C)c(O)c1C(=O)O [CBGA, cannabigerolic acid] | > 25 | 24.5 | > 25 | – | – | GPR55 ↑+++ | significant increase | – | – | significantly increased | 8.373 ± 0.410 pmol/mg of Protein | – | least toxic
4 | CCCCCc1cc(O)c(C/C=C(\C)CCC=C(C)C)c(O)c1 [CBG, cannabigerol] | 13.5 | 13 | 11.7 | – | significantly upregulate | – | – | – | – | significantly increased; also recorded: doubled | 8.027 ± 0.681 pmol/mg of Protein | increased DAGLα/β activity remarkably | –

— article PMC9145865, “Effects of Rare Phytocannabinoids on the Endocannabinoid System of Human Keratinocytes” (International Journal of Molecular Sciences, 2022)
